This passage reports IC50 results from patent US20240317735A1, “HYDROISOQUINOLINE OR HYDRONAPHTHYRIDINE COMPOUNDS FOR THE TREATMENT OF AUTOIMMUNE DISEASE” (Hoffmann-La Roche Inc., priority 2020, published 2024).

In this assay the target is T1, human TLR7 (Homo sapiens, UniProt Q9NYK1).
T1 construct: host or cells: HEK293 (HEK-Blue hTLR7)
T1 sequence (Q9NYK1 27-1049): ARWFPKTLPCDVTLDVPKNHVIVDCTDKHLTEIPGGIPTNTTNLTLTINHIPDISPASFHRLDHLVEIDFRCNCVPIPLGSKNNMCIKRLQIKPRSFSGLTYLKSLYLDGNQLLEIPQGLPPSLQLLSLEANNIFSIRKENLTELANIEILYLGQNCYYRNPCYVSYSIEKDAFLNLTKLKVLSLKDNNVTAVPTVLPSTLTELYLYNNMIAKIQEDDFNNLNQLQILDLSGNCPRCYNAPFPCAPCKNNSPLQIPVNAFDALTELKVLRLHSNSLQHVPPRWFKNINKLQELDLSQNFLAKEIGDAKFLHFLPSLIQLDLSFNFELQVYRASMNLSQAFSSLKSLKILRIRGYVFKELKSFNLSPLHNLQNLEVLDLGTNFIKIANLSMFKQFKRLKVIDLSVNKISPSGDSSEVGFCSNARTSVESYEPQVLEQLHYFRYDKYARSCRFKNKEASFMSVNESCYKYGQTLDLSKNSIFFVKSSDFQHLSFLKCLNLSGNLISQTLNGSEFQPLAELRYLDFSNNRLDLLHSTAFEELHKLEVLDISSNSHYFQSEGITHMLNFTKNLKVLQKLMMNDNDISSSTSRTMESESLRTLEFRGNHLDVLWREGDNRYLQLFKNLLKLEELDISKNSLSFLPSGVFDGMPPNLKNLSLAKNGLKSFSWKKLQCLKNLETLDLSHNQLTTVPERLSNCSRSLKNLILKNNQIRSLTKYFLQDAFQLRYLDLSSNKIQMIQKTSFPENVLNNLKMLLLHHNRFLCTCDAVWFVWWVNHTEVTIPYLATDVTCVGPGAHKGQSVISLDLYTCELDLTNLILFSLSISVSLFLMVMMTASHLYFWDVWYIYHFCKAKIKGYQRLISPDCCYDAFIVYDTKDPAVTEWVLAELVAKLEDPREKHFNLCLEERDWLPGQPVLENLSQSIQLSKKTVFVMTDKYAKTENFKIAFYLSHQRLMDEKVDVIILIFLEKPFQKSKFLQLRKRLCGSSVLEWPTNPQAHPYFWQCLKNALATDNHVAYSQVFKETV
Description: HEK293-Blue-hTLR-7 cells assay (SEAP reporter, R848 stimulation). Particulars: HEK293-Blue-hTLR7 cells, R848, 20 hrs; read-out: HEK/hTLR7 IC50. It is filed as cell-based. In outline:
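Stable HEK293-Blue-hTLR7 cells (NF-κB/AP-1-driven SEAP reporter) were co-incubated with serially diluted compound (1% DMSO final) and R848 for 20 hrs at 37 °C. Supernatant SEAP was developed with QUANTI-Blue substrate for 2 hrs at 37 °C and absorbance read at 620–655 nm; antagonism seen as reduced reporter signal.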
For the molecule `Cc1cc(N2Cc3ccc(N4CCOC5(CNC5)C4)nc3[C@@H](C)C2)c2cnn(C)c2n1` [Example 70, 8-[(8S)-6-(1,6-dimethylpyrazolo[3,4-b]pyridin-4-yl)-8-methyl-7,8-dihydro-5H-1,6-naphthyridin-2-yl]-5-oxa-2,8-diazaspiro[3.5]nonane], the IC50 is 0.036 µM. The value for `Cc1cc(N2Cc3ccc(N4CCNCC4)nc3[C@H](C)C2)c2cnn(C)c2n1` [Example 72, (8R)-6-(1,6-dimethylpyrazolo[3,4-b]pyridin-4-yl)-8-methyl-2-piperazin-1-yl-7,8-dihydro-5H-1,6-naphthyridine] was 0.021 µM; that for `CO[C@H]1CN(c2cc3c(cn2)CN(c2cc(C)nc4c2cnn4C)C[C@@H]3C)CC[C@@H]1N` [Example 73, (3S,4S)-3-methoxy-1-[(5R)-7-(1,6-dimethylpyrazolo[3,4-b]pyridin-4-yl)-5-methyl-6,8-dihydro-5H-2,7-naphthyridin-3-yl]piperidin-4-amine] was 0.004 µM. `Cc1cc(N2Cc3cnc(N4CCNCC4)cc3[C@@H](C)C2)c2cnn(C)c2n1` [Example 74, (4R)-2-(1,6-dimethylpyrazolo[3,4-b]pyridin-4-yl)-4-methyl-6-piperazin-1-yl-3,4-dihydro-1H-2,7-naphthyridine]: the IC50 worked out at 0.006 µM. For the molecule `Cc1cc(N2Cc3cnc(N4CCNC5(CC5)C4)cc3[C@@H](C)C2)c2cnn(C)c2n1` [Example 75, (4R)-6-(4,7-diazaspiro[2.5]octan-7-yl)-2-(1,6-dimethylpyrazolo[3,4-b]pyridin-4-yl)-4-methyl-3,4-dihydro-1H-2,7-naphthyridine], the IC50 was found to be 0.01 µM. Turning to `Cc1cc(N2Cc3cnc(O[C@@H]4C[C@H]5CNCCN5C4)cc3[C@@H](C)C2)c2cnn(C)c2n1` [Example 76, (4R)-2-(1,6-dimethylpyrazolo[3,4-b]pyridin-4-yl)-4-methyl-6-[[(7R,8aS)-1,2,3,4,6,7,8,8a-octahydropyrrolo[1,2-a]pyrazin-7-yl]oxy]-3,4-dihydro-1H-2,7-naphthyridine], the IC50 stood at 0.019 µM. The figure for `Cc1cc(N2Cc3cnc(OCCN4CCNCC4)cc3[C@@H](C)C2)c2cnn(C)c2n1` [Example 77, (4R)-2-(1,6-dimethylpyrazolo[3,4-b]pyridin-4-yl)-4-methyl-6-(2-piperazin-1-ylethoxy)-3,4-dihydro-1H-2,7-naphthyridine] is 0.019 µM; for `CO[C@@H]1CN(c2cc3c(cn2)CN(c2cc(C)nc4c2cnn4C)C[C@@H]3C)C[C@H]1N` [Example 78, (3R,4R)-4-methoxy-1-[(5R)-7-(1,6-dimethylpyrazolo[3,4-b]pyridin-4-yl)-5-methyl-6,8-dihydro-5H-2,7-naphthyridin-3-yl]pyrrolidin-3-amine] it is 0.045 µM; for `Cc1cc(N2Cc3cnc(N4CC5(CNCCO5)C4)cc3[C@@H](C)C2)c2cnn(C)c2n1` [Example 79, 2-[(5R)-7-(1,6-dimethylpyrazolo[3,4-b]pyridin-4-yl)-5-methyl-6,8-dihydro-5H-2,7-naphthyridin-3-yl]-5-oxa-2,8-diazaspiro[3.5]nonane] it is 0.019 µM.

For the molecule `Cc1cc(N2Cc3cnc(N4CC[C@@H](N)[C@H](F)C4)cc3[C@@H](C)C2)c2cnn(C)c2n1` [Example 80, (3R,4R)-3-fluoro-1-[(5R)-7-(1,6-dimethylpyrazolo[3,4-b]pyridin-4-yl)-5-methyl-6,8-dihydro-5H-2,7-naphthyridin-3-yl]piperidin-4-amine], the IC50 turned out to be 0.012 µM. The figure for `COC[C@H]1CN(c2cc3c(cn2)CN(c2cc(C)nc4c2cnn4C)C[C@@H]3C)CCN1` [Example 81, (4R)-2-(1,6-dimethylpyrazolo[3,4-b]pyridin-4-yl)-4-methyl-6-[(3R)-3-(methoxymethyl)piperazin-1-yl]-3,4-dihydro-1H-2,7-naphthyridine] is 0.041 µM.
